Assay results reported in US4694006A, “Acyl- or acyloxymethyl-allopurinol prodrugs” (priority 1983, dated 1987).
In brackets after ≈: the same amount, converted by molar mass. Structures can show the parent of a compound that is named as a salt. Where two headings read alike, the source gives them in different places.

Columns and labels:
healthy human volunteer = experiment: Rectal micro-enema in a healthy human volunteer, urinary excretion; type: in vivo; details: 100 mg allopurinol equivalents
Protocol: The dose given (2 ml of a 0.5% methylcellulose solution containing 118 mg/ml of the prodrug) corresponded to 100 mg of allopurinol. Urine was collected over 5 days and aliquots were assayed for allopurinol and oxipurinol by a specific HPLC assay.

physchem = details: for solubility: water
Protocol: (§1) The water-solubility and lipophilicity of the allopurinol drugs
(§2) The apparent partition coefficients (P) for some allopurinol derivatives and allopurinol were measured using the widely used 1-octanol-water system. Similarly, the solubility of the derivatives in water or aqueous buffer solutions was determined.

[1] = In-vitro cleavage of allopurinol derivatives to allopurinol in 80% human plasma (pH 7.4) at 37° C; type: in vitro ADME; details: 80% plasma, pH 7.4, 37° C, read-out: Half-time (t0.5) of the conversion to allopurinol, 80% human plasma (converted)
Protocol: (§3) In-vitro cleavage of allopurinol derivatives
(§4) Solutions of various derivatives of allopurinol in aqueous buffer solutions or 80% human plasma solutions (pH 7.4) were kept at 37° C. The initial concentration of the derivatives was in the range 0.01-0.1 mg/ml. At various times an aliquot of the solutions was withdrawn and analyzed by HPLC for remaining derivative as well as for allopurinol. For the plasma solutions the aliquot withdrawn was deproteinized with ethanol or trichloroacetic acid and after centrifugation, the clear supernatant was injected on HPLC.
(§5) An HPLC method was used for the determination of allopurinol and its derivatives. In this method a reversed-phase LiChrosorb RP-8 column (250×4 mm) was eluated at ambient temperature with mixtures of methanol and 0.01M acetate buffer pH 4.5 or methanol and 0.03M phosphate buffer pH 7.0. The composition of the eluant was adjusted for each compound in order to provide an appropriate retention time. The flow rate was 1.2 ml/min and the column effluent was monitored spectrophotometrically at 252 nm or 274 nm. Quantitation of the compounds was done by measurement of peak heights.
(§6) The half-times of allopurinol formation from various derivatives at physiological conditions of pH and temperature are given in Table 2. It can be seen that in the presence of human plasma the rate of degradation is strongly accelerated, thus showing the susceptibility of the derivatives to undergo conversion into the parent active compound at conditions simiar to those prevailing in vivo.

rabbits = experiment: Intravenous administration to four rabbits, plasma levels; type: in vivo, rabbit; details: i.v., 25 mg allopurinol equivalents
[2] = In-vitro cleavage of allopurinol derivatives to allopurinol in pH 7.4 buffer at 37° C; type: physicochemical; details: read-out: Half-time (t0.5) of the conversion to allopurinol, pH 7.4 buffer (converted)
Protocol: as §3, §4, §5, §6

[3] = Protocol: as §1, §2
[4] = sodium salt of allopurinol at 0.5-1%; cited from earlier work
[5] = in vivo; cited from earlier work

| Compound | solubility (physchem) | half-life [1] | half-life [2] | log P [3] | further results |
| --- | --- | --- | --- | --- | --- |
| CC(N)C(=O)OCn1ncc2c(=O)[nH]cnc21 (racemic) [1-(DL-Alanyloxymethyl)allopurinol (hydrobromide)] | > 500000 µg/mL | 11 min | 15 min | – | – |
| CCN(CC)C(C)C(=O)OCn1ncc2c(=O)[nH]cnc21 (racemic) [1-(DL-N,N-Diethylalanyloxymethyl)allopurinol (hydrochloride)] | > 400000 µg/mL | 17 min | 21 min | – | log P ([3]; pH 8): 0.72 |
| NC(Cc1ccccc1)C(=O)OCn1ncc2c(=O)[nH]cnc21 (racemic) [1-(DL-Phenylalanyloxymethyl)allopurinol, 1-(DL-Phenylalanyloxymethyl)allopurinol (hydrobromide)] | > 200000 µg/mL | 9 min | 40 min | – | log P ([3]; pH 8): 0.40 |
| NC(C(=O)OCn1ncc2c(=O)[nH]cnc21)c1ccccc1 (racemic) [1-(DL-Phenylglycyloxymethyl)allopurinol, 1-(DL-Phenylglycyloxymethyl)allopurinol (hydrobromide)] | > 200000 µg/mL | 3 min | 20 min | – | log P ([3]; pH 8): -0.15 |
| CC(N)C(=O)OCn1cc2c(=O)n(COC(=O)C(C)N)cnc2n1 (racemic) [2,5-bis(DL-Alanyloxymethyl)allopurinol, 2,5-bis-(DL-Alanyloxymethyl)allopurinol (dihydrobromide)] | – | < 1 min | < 1 min | – | – |
| CCCC(=O)OCn1cnc2c(cnn2COC(=O)CCC)c1=O [1,5-bis(Butyryloxymethyl)allopurinol] | 50 µg/mL (≈ 0.149 mM) | 22 min | 1500 min | 1.82 | – |
| CC(=O)OCn1ncc2c(O)ncnc21 [1-(Acetoxymethyl)allopurinol, 1-(Acetyloxymethyl)allopurinol] | 580 µg/mL (≈ 2.79 mM) | 31 min | 5220 min | -0.35 | – |
| CC(=O)n1ncc2c(O)ncnc21 [1-(Acetyl)allopurinol] | 750 µg/mL (≈ 4.21 mM) | 6 min | 26 min | -0.35 | – |
| O=C(OCn1ncc2c(=O)[nH]cnc21)c1ccccc1 [1-(Benzoyloxymethyl)allopurinol] | – | 4 min | 14200 min | 1.50 | – |
| CCCC(=O)n1ncc2c(O)ncnc21 [1-(Butyryl)allopurinol] | 110 µg/mL (≈ 0.533 mM) | 2.5 min | 36 min | 0.85 | – |
| CCCC(=O)OCn1ncc2c(=O)[nH]cnc21 [1-(Butyryloxymethyl)allopurinol] | – | 9 min | 11600 min | 0.60 | – |
| O=C(CCl)n1ncc2c(=O)[nH]cnc21 [1-(Chloroacetyl)allopurinol] | – | < 1 min | < 1 min | – | – |
| CN(C)CC(=O)n1ncc2c(=O)[nH]cnc21 [1-(N,N--Dimethylglycyl)allopurinol, 1-(N,N-Dimethylglycyl)allopurinol (hydrochloride)] | > 200000 µg/mL | < 1 min | 1.5 min | – | – |
| CN(C)CC(=O)OCn1ncc2c(=O)[nH]cnc21 [1-(N,N-Dimethylglycyloxymethyl)allopurinol (hydrochloride)] | > 500000 µg/mL | 7 min | 72 min | – | log P ([3]; pH 8): -0.49 |
| CCCN(CCC)CC(=O)OCn1ncc2c(=O)[nH]cnc21 [1-(N,N-Dipropylglycyloxymethyl)allopurinol (hydrochloride)] | > 400000 µg/mL | 12 min | 50 min | – | log P ([3]; pH 8): 1.27 |
| CCCCNC(=O)n1ncc2c(=O)[nH]cnc21 [1-(N--Butylcarbamoyl)allopurinol, 1-(N-Butylcarbamoyl)allopurinol] | – | 90 min | – | – | – |
| O=C(OCn1ncc2c(=O)[nH]cnc21)c1cccnc1 [1-(Nicotinoyloxymethyl)allopurinol] | 93 µg/mL (≈ 0.343 mM) | 21 min | 1560 min | 0.27 | – |
| CN(C)CCCC(=O)OCn1ncc2c(=O)[nH]cnc21 [1-[4-(N,N-Dimethylamino)butyryloxymethyl]allopurinol (hydrochloride)] | – | 140 min | 145 min | – | – |
| CC(=O)OCn1cc2c(=O)n(COC(C)=O)cnc2n1 [2,5-bis(Acetoxymethyl)allopurinol] | 2900 µg/mL (≈ 10.3 mM) | 51 min | 900 min | – | – |
| CCCC(=O)OCn1cc2c(=O)n(COC(=O)CCC)cnc2n1 [2,5-bis(Butyryloxymethyl)allopurinol] | 94 µg/mL (≈ 0.279 mM) | 32 min | 2100 min | 1.60 | – |
| CC(C)(C)C(=O)OCn1cc2c(=O)n(COC(=O)C(C)(C)C)cnc2n1 [2,5-bis(Pivaloyloxymethyl)allopurinol] | – | – | – | 2.34 | – |
| CCCC(=O)OCn1cc2c(=O)[nH]cnc2n1 [2-(Butyryloxymethyl)allopurinol] | 1500 µg/mL (≈ 6.35 mM) | 22 min | 3240 min | 0.33 | – |
| Oc1ncnc2[nH]ncc12 [sodium salt of allopurinol] | – | – | – | – | pH of infusion fluids [4]: 10.5-11.5; adverse effects of administration of infusion fluids [5]: may cause thrombophlebitis or perivascular inflammation |

The next lines start with results.

| solubility (physchem) | half-life [1] | half-life [2] | log P [3] | Compound | further results |
| --- | --- | --- | --- | --- | --- |
| > 500000 µg/mL | 10 min | 49 min | – | CCN(CC)CC(=O)OCn1ncc2c(=O)[nH]cnc21 | bioavailability of the parent drug from the prodrug given rectally (healthy human volunteer): virtually complete bioavailability; aqueous solubility relative to the parent compound (factor) (physchem): 5,000; bioavailability of the parent drug from the prodrug given intravenously (rabbits): almost complete bioavailability |
| 20 µg/mL (≈ 0.0549 mM) | – | – | 2.50 | CC(C)(C)C(=O)OCn1cnc2c(cnn2COC(=O)C(C)(C)C)c1=O [1,5-bis(Pivaloyloxymethyl)allopurinol] | – |
| – | 4 min | 20 min | 1.20 | O=C(c1ccccc1)n1ncc2c(=O)[nH]cnc21 [1-(Benzoyl)allopurinol] | – |
| – | 20 min | – | 0.21 | CCOC(=O)OCn1ncc2c(O)ncnc21 [1-(Ethoxycarbonyloxymethyl)allopurinol] | – |
| > 500000 µg/mL | 9 min | 26 min | – | NCC(=O)OCn1ncc2c(=O)[nH]cnc21 [1-(Glycyloxymethyl)allopurinol, 1-(Glycyloxymethyl)allopurinol (hydrochloride)] | – |
| > 400000 µg/mL | 6 min | 17 min | – | CC(C)C[C@H](N)C(=O)OCn1ncc2c(=O)[nH]cnc21 [1-(L-Leucyloxymethyl)allopurinol, 1-(L-Leucyloxymethyl)allopurinol (hydrobromide)] | log P ([3]; pH 8): 0.19 |
| 520 µg/mL (≈ 2.08 mM) | – | – | 1.07 | CC(C)(C)C(=O)OCn1ncc2c(O)ncnc21 [1-(Pivaloyloxymethyl)allopurinol] | – |
| 300 µg/mL (≈ 1.56 mM) | 4 min | 30 min | 0.30 | CCC(=O)n1ncc2c(O)ncnc21 [1-(Propionyl)allopurinol] | – |
| 33000 µg/mL (≈ 103 mM) | 504 min | 4860 min | -0.22 | CCN(CC)C(=O)CCC(=O)OCn1ncc2c(O)ncnc21 [1-[3-(N,N-Diethylcarbamoyl)propionyloxymethyl]allopurinol] | – |
| 1700 µg/mL (≈ 6.79 mM) | – | – | 0.79 | CC(C)(C)C(=O)OCn1cc2c(=O)[nH]cnc2n1 [2-(Pivaloyloxymethyl)allopurinol, 2-(pivaloyloxymethyl)allopurinol] | – |
